Source: US11021481B2, “Substituted isoindolin-1-ones and 2,3-dihydro-1h-pyrrolo[3,4-c]pyridin-1-ones as HPK1 antagonists” (Nimbus Saturn, Inc., priority 2019, dated 2021)
Counter-ions that a name gives are not always drawn.

Each compound was assayed against HPK1 (Homo sapiens (Human), UniProt Q92918) (assay: HPK1 biochemical enzyme assay (microfluidic mobility shift assay)). Conditions: 1.5 nM HPK1, ATP 1 mM final, 30 min preincubation, 60 min at RT, Caliper EZ Reader; read-out: HPK1 1000UMATP caliper IC50.
HPK1, sequence (Q92918 whole entry): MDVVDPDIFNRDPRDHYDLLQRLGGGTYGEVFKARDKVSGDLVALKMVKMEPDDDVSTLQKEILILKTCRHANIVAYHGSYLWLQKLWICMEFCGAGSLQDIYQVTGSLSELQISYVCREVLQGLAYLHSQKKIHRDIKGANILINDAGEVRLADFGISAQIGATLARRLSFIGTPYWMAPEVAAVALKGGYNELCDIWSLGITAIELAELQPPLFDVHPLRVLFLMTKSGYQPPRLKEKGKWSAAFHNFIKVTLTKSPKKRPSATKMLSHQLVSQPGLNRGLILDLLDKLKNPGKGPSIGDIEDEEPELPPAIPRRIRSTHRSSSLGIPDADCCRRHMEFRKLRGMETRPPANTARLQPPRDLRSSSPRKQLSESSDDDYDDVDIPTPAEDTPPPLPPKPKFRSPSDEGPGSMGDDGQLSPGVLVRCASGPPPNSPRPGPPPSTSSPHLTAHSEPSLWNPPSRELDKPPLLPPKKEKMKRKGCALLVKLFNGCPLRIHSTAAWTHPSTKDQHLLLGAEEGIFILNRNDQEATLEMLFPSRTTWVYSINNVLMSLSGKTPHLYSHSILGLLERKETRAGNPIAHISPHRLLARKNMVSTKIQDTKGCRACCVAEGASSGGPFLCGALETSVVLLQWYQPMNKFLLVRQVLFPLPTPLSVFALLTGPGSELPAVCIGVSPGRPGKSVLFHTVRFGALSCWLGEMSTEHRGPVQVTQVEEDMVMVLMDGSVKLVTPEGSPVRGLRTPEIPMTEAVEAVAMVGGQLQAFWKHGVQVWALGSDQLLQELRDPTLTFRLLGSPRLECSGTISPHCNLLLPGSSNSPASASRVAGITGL
Outline: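 Mobility shift readout of HPK1 activity after a 60 min RT reaction with 1 mM ATP, 1 μM substrate and 5 mM MgCl2. Enzyme/substrate mix was first exposed to compounds for 30 min, using ten-point curves topping at 3 μM final.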
In the case of `C[C@H](c1ccc(Nc2ccc(-c3cnc4cc(F)ccn34)c3c2C(=O)NC3)nc1)N1CCC(O)CC1` [I-527, (R)-4-(7-fluoroimidazo [1,2-a]pyridin-3-yl)-7-((5-(1-(4-hydroxypiperidin-1-yl)ethyl)pyridin-2-yl)amino)isoin-dolin-1-one], the IC50 is reported as under 100 nM. `C[C@@H]1COCCN1c1ccc(Nc2ccc(-c3cnc4cc(F)ccn34)c3c2C(=O)NC3)nc1CN(C)C` [I-528, 7-[[6-[(dimethylamino)-methyl]-5-[(3R)-3-methylmorpho-lin-4-yl J-2-pyridyl]amino]-4-(7-fluoroimidazo [1,2-a]pyridin-3-yl)isoindolin-1-one Formic acid salt] was tested, and the IC50 was under 100 nM. `C[C@H]1CN(c2ccc(Nc3ccc(-c4cnc5cc(F)ccn45)c4c3C(=O)NC4)nc2CN(C)C)CCO1` [I-529, 7-[[6-[(dimethylamino)-methyl]-5-[(2S)-2-methylmorpho-lin-4-yl]-2-pyridyl]amino]-4-(7-fluoroimidazo [1,2-a]pyridin-3-yl)isoindolin-1-one Bis formic acid salt] was tested, and the IC50 was under 100 nM. `CN(C)Cc1nc(Nc2ccc(-c3cnc4cc(F)ccn34)c3c2C(=O)NC3)ccc1N1CCOC2(CC2)C1` [I-530, 7-[[6-[(dimethylamino)-methyl]-5-(4-oxa-7-azaspiro[2.5]octan-7-yl)-2-pyridyl]amino]-4-(7-fluoroimidazo [1,2-a]pyridin-3-yl)isoindolin-1-one Formic acid salt] showed an IC50 of under 100 nM. `C[C@H]1COCCN1c1ccc(Nc2ccc(-c3cnc4cc(F)ccn34)c3c2C(=O)NC3)nc1CN(C)C` [I-531, 7-[[6-[(dimethylamino)-methyl]-5-[(3S)-3-methylmorpho-lin-4-yl]-2-pyridyl]amino] 4-(7-fluoroimidazo [1,2-a]pyridin-3-yl)isoindolin-1-one] gave an IC50 of under 100 nM. In the case of `CN(C)Cc1nc(Nc2ccc(-c3cnc4cc(F)ccn34)c3c2C(=O)NC3)ccc1N1CCC[C@H](O)C1` [I-532, 7-[[6-[(dimethylamino)-methyl]-5-[(3S)-3-hydroxy-1-piperipyl]-2-pyridyl]amino]-4-(7-fluoroimidazo [1,2-a]pyridin-3-yl)isoindolin-1-one], the IC50 is reported as under 100 nM. With `CN(C)Cc1nc(Nc2ccc(-c3cnc4cc(F)ccn34)c3c2C(=O)NC3)ccc1O[C@@H]1CCOC1` [I-533] the IC50 was under 100 nM. `CN(C)Cc1nc(Nc2ccc(-c3cnc4cc(F)ccn34)c3c2C(=O)NC3)ccc1N1CCC(=O)N(C)CC1` [I-534, 7-[[6-[(dimethylamino)-methyl]-5-(4-methyl-5-oxo-1,4-diazepan-1-yl)-2-pyridyl]amino]-4-(7-fluoroimidazo [1,2-a]pyridin-3-yl)isoindolin-1-one Formic acid salt] showed an IC50 of under 100 nM. Work on `CN(C)Cc1nc(Nc2ccc(-c3cnc4cc(F)ccn34)c3c2C(=O)NC3)ccc1N1CCC(C)(O)CC1` [I-535, 7-[[6-[(dimethylamino)-methyl]-5-(4-hydroxy-4-methyl-1-piperidyl)-2-pyridyl]amino]-4-(7-fluoroimidazo [1,2-a]pyridin-3-yl)isoindolin-1-one Formic acid salt] yielded an IC50 of under 100 nM. In the case of `CN(C)C1CCCc2ccc(Nc3ccc(-c4cnc5cc(F)ccn45)c4c3C(=O)NC4)nc21` (stereo not shown) [I-536, 7-[[8-(dimethylami-no)-5,6,7,8-tetrahydroquin-olin-2-yl]amino]-4-(7-fluoroimidazo [1,2-a]pyridin-3-yl)isoindolin-1-one Formic acid salt], the IC50 is reported as under 100 nM. Compound `Cc1cnn2c(-c3ccc(Nc4ccc([C@H]5CCOC5)c(CN(C)C)n4)c4c3CNC4=O)cnc2c1` [I-537, (R)-7-((6-((dimethylamino)-methyl)-5-(tetrahydrofuran-3-yl)pyridin-2-yl)amino)-4-(7-methylimidazo [1,2-b]pyridazin-3-yl)isoindolin-1-one] has an IC50 of under 100 nM. `Cc1cnn2c(-c3ccc(Nc4ccc([C@@H]5CCOC5)c(CN(C)C)n4)c4c3CNC4=O)cnc2c1` [I-538, (S)-7-((6-((dimethylamino)-methyl)-5-(tetrahydrofuran-3-yl)pyridin-2-yl)amino)-4-(7-methylimidazo [1,2-b]pyridazin-3-yl)isoindolin-1-one] was tested, and the IC50 was under 100 nM. With `CN(C)Cc1nc(Nc2ccc(-c3cnc4cc(F)ccn34)c3c2C(=O)NC3)ccc1O[C@H]1CCOC1` [I-544, 7-[[6-[(dimethylamino)-methyl]-5-[(3S)-tetrahydrofuran-3-yl]oxy-2-pyridyl]amino]-4-(7-fluoroimidazo [1,2-a]pyridin-3-yl)isoindolin-1-one] the IC50 was under 100 nM. `CN(C)Cc1nc(Nc2ccc(-c3ccnc4c3ccn4C)c3c2C(=O)NC3)ccc1[C@@H]1CCOC1` [I-545, (S)-7-((6-((dimethylamino)-methyl)-5-(tetrahydrofuran-3-yl)pyridin-2-yl)amino)-4-(1-methyl-1H-pyrrolo[2,3-b]pyridin-4-yl)isoindolin-1-one] gave an IC50 of under 100 nM. For `CN(C)Cc1nc(Nc2ccc(-c3ccnc4c3ccn4C)c3c2C(=O)NC3)ccc1[C@H]1CCOC1` [I-546, (R)-7-((6-((dimethylamino)-methyl)-5-(tetrahydrofuran-3-yl)pyridin-2-yl)amino)-4-(1-methyl-1H-pyrrolo[2,3-b]pyridin-4-yl)isoindolin-1-one], the IC50 was under 100 nM. `CN(C)Cc1nc(Nc2cnc(-c3cccc4c3ccn4C)c3c2C(=O)NC3)ccc1[C@H]1CCOC1` [I-547, (R)-7-((6-((dimethylamino)-methyl)-5-(tetrahydrofuran-3-yl)pyridin-2-yl)amino)-4-(1-methyl-1H-indol-4-yl)-2,3-dihydro-1H-pyrrolo[3,4-c]pyridin-1-one] showed an IC50 of under 100 nM. Compound `COC1CN(Cc2nc(Nc3ccc(-c4cnc5cc(F)ccn45)c4c3C(=O)NC4)ccc2[C@H]2CCOC2)C1` [I-548, (R)-4-(7-fluoroimidazo [1,2-a]pyridin-3-yl)-7-((6-((3-methoxyazet-idin-1-yl)methyl)-5-(tetrahydrofuran-3-yl)pyridin-2-yl)amiiio)isoin-dolin-1-one] has an IC50 of under 100 nM. `COC1CN(Cc2nc(Nc3ccc(-c4cnc5cc(F)ccn45)c4c3C(=O)NC4)ccc2[C@@H]2CCOC2)C1` [I-549, (S)-4-(7-fluoroimidazo [1,2-a]pyridin-3-yl)-7-((6-((3-methoxyaze-tidin-1-yl)methyl)-5-(tetrahydrofuran-3-yl)pyridin-2-yl)amino)isoin-dolin-1-one] was tested, and the IC50 was under 100 nM. `CN(C)Cc1nc(Nc2ccc(-c3cnc4cc(F)ccn34)c3c2C(=O)NC3)ccc1[C@H]1CCCOC1` [I-550] gave an IC50 of under 100 nM. `CN(C)Cc1nc(Nc2ccc(-c3cnc4cc(F)ccn34)c3c2C(=O)NC3)ccc1[C@@H]1CCCOC1` [I-551] gave an IC50 of under 100 nM. `CN(C)Cc1nc(Nc2ccc(-c3cnc4cc(F)ccn34)c3c2C(=O)NC3)ccc1OC1CCOCC1` [I-553, 7-[[6-[(dimethylamino)-methyl]-5-tetrahydropy-ran-4-yloxy-2-pyridyl]amino]-4-(7-fluoroimidazo [1,2-a]pyridin-3-yl)isoindolin-1-one] showed an IC50 of under 100 nM. Work on `CN(C)Cc1nc(Nc2ccc(-c3cnc4cc(F)ccn34)c3c2C(=O)NC3)ccc1[C@H]1CCCO1` [I-554, (R)-7-((6-((dimethylamino)-methyl)-5-(tetrahydrofuran-2-yl)pyridin-2-yl)amino)-4-(7-fluoroimidazo [1,2-a]pyridin-3-yl)isoindolin-1-one] yielded an IC50 of under 100 nM. For `CN(C)Cc1nc(Nc2ccc(-c3cnc4cc(F)ccn34)c3c2C(=O)NC3)ccc1N1CC[C@H](O)C1` [I-555], the IC50 was under 100 nM. `CN(C)Cc1nc(Nc2ccc(-c3cnc4cc(F)ccn34)c3c2C(=O)NC3)ccc1[C@H]1CCN(C)C(=O)C1` [I-556, (S)-7-((6-((dimethylamino)-methyl)-5-(1-methyl-2-oxopiperidin-4-yl)pyridin-2-yl)amino)-4-(7-fluoroimidazo [1,2-a]pyridin-3-yl)isoindolin-1-one] was tested, and the IC50 was under 100 nM. With `CN(C)Cc1nc(Nc2ccc(-c3cnc4cc(F)ccn34)c3c2C(=O)NC3)ccc1[C@@H]1CCN(C)C(=O)C1` [I-557, (R)-7-((6-((dimethylamino)-methyl)-5-(1-methyl-2-oxopiperidin-4-yl)pyridin-2-yl)amino)-4-(7-fluoroimidazo [1,2-a]pyridin-3-yl)isoindolin-1-one] the IC50 was under 100 nM. `CC(C)NCc1nc(Nc2ccc(-c3cnc4cc(F)ccn34)c3c2C(=O)NC3)ccc1[C@@H]1CCOC1` [I-558] showed an IC50 of under 100 nM. `CC(C)NCc1nc(Nc2ccc(-c3cnc4cc(F)ccn34)c3c2C(=O)NC3)ccc1[C@H]1CCOC1` [I-559, (R)-4-(7-fluoroimidazo [1,2-a]pyridin-3-yl)-7-((6-((isopropylamino)-methyl)-5-(tetrahydrofuran-3-yl)pyridin-2-yl)amino)isoin-dolin-1-one] gave an IC50 of under 100 nM. `CN(C)Cc1nc(Nc2ccc(-c3cnc4cc(F)ccn34)c3c2C(=O)NC3)ccc1[C@@H]1CCCO1` [I-560, (S)-7-((6-((dimethylamino)-methyl)-5-(tetrahydrofuran-2-yl)pyridin-2-yl)amino)-4-(7-fluoroimidazo [1,2-a]pyridin-3-yl)isoindolin-1-one] was tested, and the IC50 was under 100 nM. `CN(C)C(C)(C)C1CN(c2ccc(Nc3ccc(-c4cnc5cc(F)ccn45)c4c3C(=O)NC4)nc2)CCO1` (stereo not shown) [I-564, 7-((5-(2-(2-(dimethylami-no)propan-2-yl)morpholino)pyridin-2-yl)amino)-4-(7-fluoroimidazo [1,2-a]pyridin-3-yl)isoindolin-1-one] showed an IC50 of under 100 nM. `O=C1NCc2c(-c3ccnn4ccnc34)ncc(Nc3ccc(N4CCC(O)CC4)cn3)c21` [I-565, 7-((5-(4-hydroxypiperidin-1-yl)pyridin-2-yl)amino)-4-(imidazo[1,2-b]pyridazin-8-yl)-2,3-dihydro-1H-pyrrolo[3,4-c]pyridin-1-one] gave an IC50 of over 1000 nM. `Cn1nc(Nc2ccc(-c3cnc4cc(F)ccn34)c3c2C(=O)NC3)cc1C1(O)CCOCC1` [I-566, 4-(7-fluoroimidazo [1,2-a]pyridin-3-yl)-7-((5-(4-hydroxytetrah-ydro-2H-pyran-4-yl)-1-methyl-1H-pyrazol-3-yl)amino)isoin-dolin-1-one] showed an IC50 of under 100 nM.
